# Key:
# [1] = biological target: T1, Serine/threonine-protein kinase PLK4 (Homo sapiens) (UniProt O00444); test: Selectivity interaction (KinomeScan (DiscoverX)) EUB0001079a PLK4; settings: at 1 µM
# T1 sequence (whole entry): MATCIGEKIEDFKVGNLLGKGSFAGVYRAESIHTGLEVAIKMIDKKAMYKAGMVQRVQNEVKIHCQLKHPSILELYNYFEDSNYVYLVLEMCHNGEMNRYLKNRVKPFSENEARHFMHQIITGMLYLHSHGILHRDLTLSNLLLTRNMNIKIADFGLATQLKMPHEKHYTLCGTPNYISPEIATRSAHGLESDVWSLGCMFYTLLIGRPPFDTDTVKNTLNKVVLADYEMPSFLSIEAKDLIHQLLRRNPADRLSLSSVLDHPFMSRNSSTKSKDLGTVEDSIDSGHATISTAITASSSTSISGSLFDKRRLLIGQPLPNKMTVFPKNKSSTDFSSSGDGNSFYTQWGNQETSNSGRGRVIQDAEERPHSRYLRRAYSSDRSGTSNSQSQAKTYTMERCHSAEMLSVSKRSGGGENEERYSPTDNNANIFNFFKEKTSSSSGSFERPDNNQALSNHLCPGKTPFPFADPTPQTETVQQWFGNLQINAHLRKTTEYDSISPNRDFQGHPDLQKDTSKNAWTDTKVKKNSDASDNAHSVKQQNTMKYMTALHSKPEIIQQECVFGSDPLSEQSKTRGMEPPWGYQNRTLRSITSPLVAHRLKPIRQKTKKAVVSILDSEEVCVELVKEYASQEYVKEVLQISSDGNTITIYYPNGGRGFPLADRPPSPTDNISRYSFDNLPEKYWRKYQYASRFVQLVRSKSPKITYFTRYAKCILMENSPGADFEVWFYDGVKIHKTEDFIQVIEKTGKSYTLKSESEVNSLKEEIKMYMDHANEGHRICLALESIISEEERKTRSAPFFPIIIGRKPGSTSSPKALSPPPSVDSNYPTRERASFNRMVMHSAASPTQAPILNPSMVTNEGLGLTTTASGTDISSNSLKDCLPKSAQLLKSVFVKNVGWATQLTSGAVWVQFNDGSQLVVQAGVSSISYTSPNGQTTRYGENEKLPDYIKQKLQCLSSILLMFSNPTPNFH
# [2] = biological target: Serine/threonine-protein kinase 24 (Homo sapiens) (UniProt Q9Y6E0); test: Selectivity interaction (Kinase panel (Z-LYTE Assay)) EUB0001632a STK24; settings: at 10 µM
# [3] = biological target: Cyclin-dependent kinase-like 1 (Homo sapiens) (UniProt Q00532); test: Selectivity interaction (KinomeScan (DiscoverX)) EUB0000595a CDKL1; settings: at 10 µM
# [4] = biological target: T2, Mitogen-activated protein kinase kinase kinase 15 (Homo sapiens) (UniProt Q6ZN16); test: Selectivity interaction (KinomeScan (DiscoverX)) EUB0000045b MAP3K15
# T2 sequence (whole entry): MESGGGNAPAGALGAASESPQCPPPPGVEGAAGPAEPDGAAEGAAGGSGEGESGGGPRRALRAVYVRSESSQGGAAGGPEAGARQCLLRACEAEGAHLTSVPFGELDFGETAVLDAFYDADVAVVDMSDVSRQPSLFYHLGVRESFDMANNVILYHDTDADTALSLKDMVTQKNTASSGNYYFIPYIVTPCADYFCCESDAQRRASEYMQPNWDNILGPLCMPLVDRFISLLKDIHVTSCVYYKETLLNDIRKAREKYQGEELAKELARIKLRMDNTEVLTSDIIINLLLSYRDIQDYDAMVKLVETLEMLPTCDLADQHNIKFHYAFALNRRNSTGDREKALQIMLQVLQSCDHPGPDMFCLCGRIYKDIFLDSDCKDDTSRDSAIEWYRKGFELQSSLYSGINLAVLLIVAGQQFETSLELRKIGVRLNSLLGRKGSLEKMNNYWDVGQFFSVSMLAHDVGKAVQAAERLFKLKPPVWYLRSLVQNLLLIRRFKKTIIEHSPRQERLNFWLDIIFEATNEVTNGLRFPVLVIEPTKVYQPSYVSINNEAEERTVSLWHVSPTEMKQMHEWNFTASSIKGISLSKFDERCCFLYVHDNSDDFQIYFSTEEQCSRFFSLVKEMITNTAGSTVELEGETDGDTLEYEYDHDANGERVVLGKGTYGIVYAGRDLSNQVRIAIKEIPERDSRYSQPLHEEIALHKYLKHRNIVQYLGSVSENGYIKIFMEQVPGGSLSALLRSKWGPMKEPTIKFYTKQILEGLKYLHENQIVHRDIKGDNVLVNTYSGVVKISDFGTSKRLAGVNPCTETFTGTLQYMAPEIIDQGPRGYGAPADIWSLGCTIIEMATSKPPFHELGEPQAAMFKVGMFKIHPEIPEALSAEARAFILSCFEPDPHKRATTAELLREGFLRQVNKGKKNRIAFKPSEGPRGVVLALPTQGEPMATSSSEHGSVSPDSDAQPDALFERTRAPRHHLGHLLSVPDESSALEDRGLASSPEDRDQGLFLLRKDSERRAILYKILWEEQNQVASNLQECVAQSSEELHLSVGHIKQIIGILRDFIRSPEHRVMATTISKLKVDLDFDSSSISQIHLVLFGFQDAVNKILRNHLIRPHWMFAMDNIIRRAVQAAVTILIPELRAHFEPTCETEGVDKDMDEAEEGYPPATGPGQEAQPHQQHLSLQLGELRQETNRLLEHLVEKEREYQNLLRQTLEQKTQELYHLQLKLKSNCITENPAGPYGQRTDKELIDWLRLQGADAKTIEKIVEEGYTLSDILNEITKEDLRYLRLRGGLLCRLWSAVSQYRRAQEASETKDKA
# [5] = biological target: T3, Rhodopsin kinase GRK7 (Homo sapiens) (UniProt Q8WTQ7); test: Selectivity interaction (KinomeScan (DiscoverX)) EUB0001619a GRK7; settings: at 1 µM
# T3 sequence (whole entry): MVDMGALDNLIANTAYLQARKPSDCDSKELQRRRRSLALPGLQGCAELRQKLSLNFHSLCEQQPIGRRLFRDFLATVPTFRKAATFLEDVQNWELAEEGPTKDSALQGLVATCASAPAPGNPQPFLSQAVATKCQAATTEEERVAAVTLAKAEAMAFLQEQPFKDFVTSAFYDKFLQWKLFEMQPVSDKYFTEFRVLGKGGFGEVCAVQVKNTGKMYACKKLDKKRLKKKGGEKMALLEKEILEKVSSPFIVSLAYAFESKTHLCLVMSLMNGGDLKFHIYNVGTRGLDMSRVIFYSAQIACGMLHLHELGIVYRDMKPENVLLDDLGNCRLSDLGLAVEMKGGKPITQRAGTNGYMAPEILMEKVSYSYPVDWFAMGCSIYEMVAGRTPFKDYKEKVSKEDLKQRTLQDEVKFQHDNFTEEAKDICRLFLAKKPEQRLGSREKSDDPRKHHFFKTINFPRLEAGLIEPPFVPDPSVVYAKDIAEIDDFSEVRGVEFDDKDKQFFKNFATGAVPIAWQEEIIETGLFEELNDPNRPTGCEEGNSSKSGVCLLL
# Chain of Cyclin-dependent kinase-like 1 (Homo sapiens) (Q00532 whole entry): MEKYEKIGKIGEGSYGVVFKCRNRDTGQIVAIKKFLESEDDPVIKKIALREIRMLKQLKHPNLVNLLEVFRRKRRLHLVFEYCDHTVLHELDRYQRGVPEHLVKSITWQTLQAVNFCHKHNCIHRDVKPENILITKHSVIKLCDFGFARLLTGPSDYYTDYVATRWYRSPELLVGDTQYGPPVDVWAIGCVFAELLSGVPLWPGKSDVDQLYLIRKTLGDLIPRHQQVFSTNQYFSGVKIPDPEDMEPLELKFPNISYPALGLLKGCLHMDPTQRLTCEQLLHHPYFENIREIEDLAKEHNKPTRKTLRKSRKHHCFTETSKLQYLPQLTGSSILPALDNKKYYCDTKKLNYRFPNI
# Chain of Serine/threonine-protein kinase 24 (Homo sapiens) (Q9Y6E0 whole entry, looked up): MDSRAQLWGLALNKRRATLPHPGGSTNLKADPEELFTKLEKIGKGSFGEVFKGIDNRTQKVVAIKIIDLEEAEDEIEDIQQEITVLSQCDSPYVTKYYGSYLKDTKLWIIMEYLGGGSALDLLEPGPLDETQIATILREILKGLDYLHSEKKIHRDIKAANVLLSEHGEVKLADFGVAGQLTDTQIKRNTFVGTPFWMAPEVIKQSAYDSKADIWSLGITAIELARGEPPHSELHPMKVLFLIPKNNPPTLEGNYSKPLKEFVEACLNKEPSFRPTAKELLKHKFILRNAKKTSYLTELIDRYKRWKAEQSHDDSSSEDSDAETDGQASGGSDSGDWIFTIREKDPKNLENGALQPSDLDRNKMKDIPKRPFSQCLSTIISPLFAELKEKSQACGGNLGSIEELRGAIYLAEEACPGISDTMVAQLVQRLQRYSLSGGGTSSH
structure (smiles),measurement,setting,value
Nc1cnc(N2CCc3cc(S(=O)(=O)Nc4c(F)cc(Cl)cc4F)cc(N4CCCC4=O)c32)nc1 [TP-020n],% of control,[1],100%
Cn1cc(-n2cnc3c(NCc4nc5cc(Cl)c(Cl)cc5[nH]4)nc(N4CCOCC4)nc32)cn1,% of control,[2],1.16%
COCC(=O)NC/C=C/c1ccc2ncnc(Nc3ccc(Oc4ccc(C)nc4)c(C)c3)c2c1 [CP-724714],% of control,[3],69%
C=CC(=O)Nc1cc(-n2c(=O)ccc3cnc4ccc(-c5ccc(NS(C)(=O)=O)cc5)cc4c32)ccc1C,% of control,[4]; at 1 µM,70%
same,% of control,[4]; at 10 µM,100%
N#Cc1cccc(-c2c[nH]c3ncnc(N4CCOCC4)c23)c1,% of control,[5],37%

# Reference: ChEMBL document CHEMBL5465560, “Selectivity Literature for EUbOPEN Chemogenomic Library” (2024)
